Data on two compounds can be found in US9440967B2, “1H-pyrrolo [2, 3 -B] pyridine derivatives and their use as radical quenchers” (Arizona Board of Regents on Behalf of Arizona State …, priority 2012, dated 2016).

Structures are written as SMILES. Where a name gives a salt, the structure may show the parent alone.

Common to all, as to type: cell-based, Human
One assay concerns CEM cells. As to the kind of experiment: Trypan blue cell viability assay of DEM-treated cells. To be noted: CEM cells pretreated 16 h, then 5 mM DEM 5.5 h; FIG. 5. The procedure:
FIG. 5. Trypan blue exclusion assay of CEM cells treated with test compounds for 16 h before exposure to 5 mM diethyl maleate for 5.5 h. At the time of assay, >80% of the DEM-treated cells were trypan blue positive, whereas in the non-DEM treated control, >95% of the cells were viable. Cell viability was expressed as the percentage of control. Results are an average of three independents trials. α-TOH is α-tocopherol.
Cell viability determined by trypan blue exclusion assay: This technique was used to assess the cytoprotective effects of the invention compounds in cultured cells pharmacologically treated to induce cell death by GSH depletion. DEM was used to deplete cellular GSH and induce oxidative stress. The viability of DEM-treated CEM cells was determined by their ability to exclude the dye trypan blue. Viable cells exclude trypan blue; whereas, non-viable cells take up the dye and stain blue. Briefly, CEM lymphoblasts (CCL-119) were grown in RPMI 1640 medium (GIBCO, Grand island, NY, USA) supplemented with 10% fetal calf serum, 2 mM glutamine (HyClone, South Logan, Utah, USA), 1% penicillin-streptomycin mix (Cellgro, Manassas, Va., USA). Cells were seeded at a density of 5×10^5 cells/mL and treated with different concentrations of the invention compounds. Cells were incubated at 37° C. in a humidified atmosphere of 5% CO2 in air for 16 hours. After pre-incubation, the cells were treated with 5 mM DEM for 5.5 h. Cell viability was determined by staining cells with 0.4% trypan blue using a hemacytometer. At least 500 cells were counted for each experimental group. At the time of assay, >80% of DEM-treated cells were trypan blue positive; whereas, in non-DEM treated control cell cultures>95% cells were viable. Cell viability was expressed as the percentage of control. Data are expressed as means±S.E.M (n=3).

The test system of assay [1] is CEM leukemia cells. As to the kind of experiment: Lipid peroxidation, C11-BODIPY581/591 oxidation in cell culture (FACS). To be noted: CEM cells pretreated 16 h with 2.5 and 5 μM compound, then 5 mM DEM 90 min; compared with α-tocopherol; FIG. 2. The procedure:
FIG. 2. Comparison of the lipid peroxidation in CEM leukemia cells depleted of glutathione detected by utilizing the oxidation-sensitive fatty acid probe C-11 BODIPY^581/591 using flow cytometry. Increased C-11 BODIPY-green fluorescence (oxidized form), a measure of intracellular lipid peroxidation, was determined by increasing the geometric mean fluorescence intensity (GMFI) of C-11 BODIPY-green relative to the untreated control. A bar graph representing the percentage of the geometric mean fluorescence intensity (GMFI) of C-11 BODIPY-green fluorescence relative to a treated control is shown. Data are expressed as the mean±SEM (n=3). α-TOH is α-tocopherol.
Lipid peroxidation in CEM leukemia cells was detected by utilizing the oxidant-sensitive lipophilic probe C11 BODIPY^581/591. Briefly, CEM cells (5×10^5 cell/mL) were treated with the test compounds at final concentrations of 2.5 and 5 μM, and incubated at 37° C. for 16 h in a humidified atmosphere containing 5% CO2 in air. Cells were treated with 1 μMC11 BODIPY^581/591 in phenol red-free RPMI-1640 media and incubated at 37° C. in the dark for 30 minutes. The cells were washed twice with phosphate buffered saline and oxidative stress was induced with 5 mM DEM in phenol red-free RPMI-1640 media for 90 minutes. Treated cells were collected by centrifugation at 300×g for 3 minutes and then washed twice with phosphate buffered saline. Cells were re-suspended in 250 μL of phosphate buffered saline and were analyzed by FACS (FACS Calibur flow cytometer, Becton Dickinson) to monitor the change in intensity of the C11 BODIPY^581/591-green (oxidized) fluorescence signal. A total of 10000 events were recorded for each sample and analyzed with the CellQuest software (BD Biosciences). The results were verified by repeating the experiments in duplicate. Results are expressed as the relative percentage of treated control (DEM).

In assay [2] the test system is CEM leukemia cells. Put plainly: Mitochondrial membrane potential (Δψm) assay, TMRM staining (FACS). The settings on record: CEM cells pretreated 16 h, then 5 mM DEM 120 min, 250 nM TMRM; FIG. 3 and 4. As to the method:
FIG. 3. Representative flow cytometric two-dimensional color density dot plot analyses of mitochondrial membrane potential (ΔΨm) in leukemia CEM cells stained with 250 nM TMRM and analyzed using FL2-H channel as described in the experimental section. The percentage of cells with intact ΔΨm is indicated in the top right quadrant of captions. Representative example from at least three independent experiments. A total of 10000 events were recorded for each sample and analyzed with the CellQuest software (BD Biosciences).
FIG. 4. A bar graph representation of means the percentage of cells with intact ΔΨm recorded by FACS. Data are expressed as means±SEM of three independent experiments run in duplicate.
Measurement of Mitochondrial Membrane Potential (Δψm) (FACS). For the determination of Δψm, CEM leukemia cells were pre-treated with or without the test compounds for 16 h. The cells were treated with 5 mM DEM for 120 minutes, collected by centrifugation at 300×g for 3 minutes and then washed twice with phosphate buffered saline. The cells were re-suspended in HSSB buffer and incubated at 37° C. in the dark for 15 minutes with 250 nM TMRM (a cationic dye which accumulates within mitochondria in accordance with the Δψm Nernst potential). Cells were collected by centrifugation at 300×g for 3 minutes and then washed twice with phosphate buffered saline. The samples were analyzed immediately by flow cytometry using 488 nm excitation laser and the FL2-H channel. The results obtained were verified in three independent experiments. The protonophore FCCP (10 μM) was used to dissipate the chemiosmotic proton gradient […] and served as a control for loss of Δψm. […] The results were verified by repeating the experiments in duplicate.

For `CCCCCCCCCCc1nc2c(c(C)c1O)CCN2C` [Compound 1b, 1,4-Dimethyl-6-decyl-2,3-dihydro-1H-pyrrolo[2,3-b]pyridin-5-ol trifluoro acetic acid salt], the “cytoprotection (cell viability, trypan blue exclusion)” value in the assay with CEM cells is “more effective in cytoprotection than was α-TOH”. Also, the “protection against lipid (membrane) peroxidation (C11-BODIPY-green fluorescence)” value with CEM leukemia cells [1] is “significantly better protection than was achieved with α-tocopherol”. Also, the “prevention of loss of Δψm (mitochondrial depolarization)” value in the assay with CEM leukemia cells [2] is reported as “the most effective in preventing mitochondrial depolarization”.

Regarding `CCCCCCCCCCc1nc2c(c(C)c1OC(C)=O)CCN2C` [Compound 2b, 1,4-Dimethyl-6-decyl-2,3-dihydro-1H-pyrrolo[2,3-b]pyridin-5-yl acetate], the “cytoprotection (cell viability, trypan blue exclusion)” value with CEM cells is “more effective in cytoprotection than was α-TOH”. Moreover, the “protection against lipid (membrane) peroxidation (C11-BODIPY-green fluorescence)” value in the assay on CEM leukemia cells [1] is reported as “results comparable to α-TOH”. The “prevention of loss of Δψm (mitochondrial depolarization)” value in the assay with CEM leukemia cells [2] was “the most effective in preventing mitochondrial depolarization”.
